This is an account of results in PubChem BioAssay AID463199 (Broad Institute, 2010).

What is called AC50 is the midpoint of the concentration-response curve, whichever way the signal moves.

Active and inactive are the calls of the source.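 How the source made its calls: active means AC50, the dose giving half-maximal effect, exceeds a fixed cutoff for a compound that rescues yeast growth under heat; inactive means the rest, inconclusive results apart.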 A value given as a limit tells only on which side of the number the result lay.

For this assay, the system named is S. cerevisiae Burl-1 ts mutant growth, BacTiter-Glo, 38.5C 24 h. In words: restored growth of temperature-sensitive Burl-1 yeast – whole organism, S. cerevisiae, Burl-1 ts mutant, luminescence, counter-screen for SUMOylation pathway inhibitor project, dose response (AID 463199). A general note: A counterscreen serves to expose hits that act by an unwanted route or on another target.
With `CCn1nnc(-c2ccccc2NC(=O)c2cnccn2)n1`, the AC50 was > 42 µM (inactive).

For `CCOC(=O)N1CCN(C(=O)c2ccc(CS(=O)(=O)c3c(Cl)cccc3Cl)o2)CC1`, the AC50 was > 42 µM (inactive).

For `Cc1cc(C)n2nc(SCC(=O)NC3CCCC(C)C3C)nc2n1` (stereo not drawn), the AC50 is > 42 µM (inactive).

As to `COc1ccc(S(=O)(=O)NC(C)C(=O)NCc2ccccn2)cc1Cl` (stereo not drawn), the AC50 is > 42 µM (inactive).

Consider `COc1ccc(C2=NOC(Cn3nc(C(=O)NCc4cccs4)cc3-c3ccccc3)C2)cc1` (stereo not drawn), for which the AC50 is > 42 µM (inactive).

Regarding `COc1ccc(CC(=O)NCCN2CCOCC2)cc1`, the AC50 is > 42 µM (inactive).

For `COc1ccc(-n2c(C)cc(C(=O)CN3C(=O)NC4(CCCc5sccc54)C3=O)c2C)cc1` (stereo not drawn), the AC50 was > 42 µM (inactive).

Turning to `CCC(C)(C)n1nnnc1C(c1cccnc1)N1CCC(Cc2ccccc2)CC1` (stereo not drawn), the AC50 was > 42 µM (inactive).

With `O=C(CN(CC1CCCO1)C(=O)CNS(=O)(=O)c1ccc(F)cc1)NCc1ccccc1` (stereo not drawn), the AC50 is > 42 µM (inactive).

Take `Cc1nc2ccc(S(=O)(=O)NC(CC(C)C)C(=O)O)cc2s1` (stereo not drawn): the AC50 was > 42 µM (inactive).

For `CCN(CC)c1ccc(/C=N/NC(=O)OC(C)(C)C)cc1`, the AC50 was > 42 µM (inactive).

In the case of `CCOCCCNC(=O)C(c1ccc(OC)cc1)N(Cc1cccs1)C(=O)c1ccccn1` (stereo not drawn), the AC50 is > 42 µM (inactive).

In the case of `COC(=O)C1=C(C)N(Cc2ccccc2)C(=S)N[C@H]1c1cccc(F)c1`, the AC50 was > 42 µM (inactive).

As to `COc1ccccc1/C=C/C(=O)N1CCc2cc(OC)c(OC)cc2C1C` (stereo not drawn), the AC50 was > 42 µM (inactive).

As for `CN1C(=O)NC(=O)[C@]2(Cc3ccccc3N3CCN(c4ccccc4)CC32)C1=O` (stereo partly drawn), the AC50 was > 42 µM (inactive).

As to `CCCCc1ccc(NC(=S)NCc2cccs2)cc1`, the AC50 was > 42 µM (inactive).

Consider `COc1ccccc1/C=C/C(=O)NC(=S)N1CCOCC1`, for which the AC50 is > 42 µM (inactive).

Turning to `CCCC(=O)Oc1c(S(=O)(=O)c2ccc(C)cc2)c(C)nn1C(C)(C)C`, the AC50 was > 42 µM (inactive).

`COc1ccc(CN2C(=O)C(=O)N(CC(N)=O)C2=O)cc1`: the AC50 is > 42 µM (inactive).

In the case of `Cc1nnsc1C(=O)N1CCC(CO)(Cc2ccccc2Cl)CC1`, the AC50 was > 42 µM (inactive).

As to `CCCCC(O)(c1ccc(F)cc1)C(CN1CCOCC1)c1ccc(Cl)cc1` (stereo not drawn), the AC50 was > 21 µM (inactive).

Consider `COC(=O)c1[nH]c2cc(C)ccc2c1NC(=O)CN1CCN(c2ccccc2OC)CC1`, for which the AC50 is > 21 µM (inactive).

In the case of `COc1ccc(-c2nc(C#N)c(NC(C)c3ccccc3)o2)cc1OC` (stereo not drawn), the AC50 is > 42 µM (inactive).

With `CC(OC(=O)c1cnccn1)C(=O)c1ccccc1` (stereo not drawn), the AC50 was > 42 µM (inactive).

`CCOC(=O)Cn1c(=O)oc2cc(S(=O)(=O)NC(C)(C)CC)ccc21`: the AC50 is > 42 µM (inactive).

For the compound `O=C(COC(=O)Cc1ccsc1)NC1CCCCCC1`, the AC50 was > 42 µM (inactive).

On to `O=S(=O)(NCC1CCCO1)c1cc(Cl)ccc1Br` (stereo not drawn), for which the AC50 is > 42 µM (inactive).

As for `CCn1cc(C(=O)N2CCN(c3ccc(OC)cc3)CC2)c(=O)c2cc(S(=O)(=O)N3CCOCC3)ccc21`, the AC50 was > 42 µM (inactive).

In the case of `O=C(O)C1C(C(=O)O)C2(Cl)C(Cl)=C(Cl)C1(Cl)C2(Cl)Cl` (stereo not drawn), the AC50 is > 42 µM (inactive).

In the case of `O=C1CCCC2=C1C(c1ccncc1)c1c(nc(SCc3ccccc3Cl)[nH]c1=O)N2` (stereo not drawn), the AC50 was > 42 µM (inactive).

Consider `CC1CCCC(C)N1/N=C/c1cc(Br)cc(Br)c1O` (stereo not drawn), for which the AC50 is > 42 µM (inactive).

As for `Cc1cccc(C)c1NC(=O)C(Cl)C(=O)c1ccccc1` (stereo not drawn), the AC50 was > 42 µM (inactive).

Regarding `COc1ccc2c(C(=O)CN3CC(C)OC(C)C3)c[nH]c2c1` (stereo not drawn), the AC50 was > 42 µM (inactive).

As to `O=C(c1cc2ccccc2o1)N1CCCC1`, the AC50 is > 42 µM (inactive).

For the compound `O=C(c1cn(-c2ccccc2)nc1-c1cccs1)N1CCOCC1`, the AC50 was > 42 µM (inactive).

In the case of `Cc1ccc(SC[C@H](C)CN2CC[C@H](C)CCC2=O)cc1`, the AC50 was > 42 µM (inactive).

For the compound `CN1/C(=C\C(=O)COC(=O)c2ccc([N+](=O)[O-])o2)C(C)(C)c2ccccc21`, the AC50 is > 42 µM (inactive).

As to `CCOC(=O)C1CCCN(C(=O)/C=C/c2ccc(Cl)cc2)C1` (stereo not drawn), the AC50 was > 42 µM (inactive).

Turning to `O=C1CSC(c2ccc(F)c(F)c2)N1c1ccccc1F` (stereo not drawn), the AC50 was > 42 µM (inactive).

As for `O=C1N=C(N2CCOCC2)S/C1=C\c1cccnc1`, the AC50 was > 42 µM (inactive).

For the compound `NC(=O)NC(=O)CSc1nc(C2CCCCC2)n(-c2ccccc2)n1`, the AC50 was > 42 µM (inactive).

`Cn1c(-c2sc3cc(C(F)(F)F)cnc3c2-c2cccs2)n[nH]c1=S`: the AC50 was > 42 µM (inactive).

As to `NC(=O)CN1CCOCCN(CC(N)=O)CCOCC1`, the AC50 was > 42 µM (inactive).

Consider `COc1ccc(S(=O)(=O)N2CCOC2CNC(=O)C(=O)NCc2ccncc2)cc1C` (stereo not drawn), for which the AC50 is > 42 µM (inactive).

On to `COc1ccccc1OCCSc1nc2ccccc2n1CCC(=O)O`, for which the AC50 is > 42 µM (inactive).

For the compound `Cc1c(NP(=O)(c2ccc(Br)cc2)c2ccc(Br)cc2)c(=O)n(-c2ccccc2)n1C`, the AC50 is > 42 µM (inactive).

As for `Cc1ccc(C(=O)NC(NC(=O)c2ccc(C)cc2)C(Cl)Cl)cc1`, the AC50 is > 42 µM (inactive).

For the compound `CCc1ccc(NC(=S)N(Cc2cccc(Br)c2)CC2CCC(C(=O)O)CC2)cc1` (stereo not drawn), the AC50 was > 42 µM (inactive).

For `Cc1ccc(NC(=O)Cn2nc(C)c3ccccc3c2=O)cc1`, the AC50 was > 42 µM (inactive).

`COc1ccc(S(=O)(=O)Cc2ccc(C(=O)NCc3cccs3)o2)cc1`: the AC50 was > 42 µM (inactive).

Turning to `COCCN(C(=O)CSc1nnc(-c2ccc(C)cc2)n1N)c1c(N)n(Cc2ccccc2)c(=O)[nH]c1=O`, the AC50 was > 42 µM (inactive).

As to `Oc1ccc(Br)cc1/C=N/n1c(COc2ccccc2)n[nH]c1=S`, the AC50 is > 42 µM (inactive).

Turning to `CCOc1ccc(-c2nc3n(c(=O)c2C#N)CCS3)cc1`, the AC50 is 40.7 µM.

Take `Cc1ccc2c(c1)C(O)(CC(=O)c1cccnc1)C(=O)N2` (stereo not drawn): the AC50 is > 42 µM (inactive).

Consider `S=C(Nc1ccccc1Cl)N1CCOCC1`, for which the AC50 is > 42 µM (inactive).

On to `CN1C(=O)C(=Cc2cn(CC(=O)N3CCCC3)c3ccccc23)C(=O)N(C)C1=O`, for which the AC50 is > 42 µM (inactive).

Regarding `CCN1C(=S)N[C@@H](c2cccs2)C(C(=O)OC)=C1C`, the AC50 is > 42 µM (inactive).

On to `CC(C)n1c(CN(C)c2ccccc2)nc2ccccc21`, for which the AC50 is > 42 µM (inactive).

For the compound `CCn1c(SCC(=O)NC2CCCCC2)nnc1C(C)NC(=O)c1ccccc1F` (stereo not drawn), the AC50 was > 42 µM (inactive).

On to `O=C(O)CSc1ncnc2sc(-c3ccccc3)cc12`, for which the AC50 is > 42 µM (inactive).

With `CCS(=O)(=O)N1CCCC(C(=O)NCc2cccnc2)C1` (stereo not drawn), the AC50 was > 42 µM (inactive).

In the case of `CC(=O)NCCc1nc2cc(NC(=O)c3ccc(F)cc3)ccc2n1C`, the AC50 was > 42 µM (inactive).

With `O=C(O)CC(NC(=O)c1ccc2c(c1)OCO2)c1cccc([N+](=O)[O-])c1` (stereo not drawn), the AC50 was > 42 µM (inactive).

Turning to `O=[N+]([O-])c1ccc(-c2csc(N3CCc4ccccc4C3)n2)cc1`, the AC50 is > 42 µM (inactive).

For `CC1CCN(S(=O)(=O)c2ccc(NC(=O)c3cccs3)cc2)CC1`, the AC50 is > 42 µM (inactive).

For `COc1cc(C(=O)OCC(=O)NCc2ccccc2)cc(NC(=O)c2ccco2)c1OC`, the AC50 is > 42 µM (inactive).

`O=C(O)c1ccc(N=C2NC(=O)C(CO)(CO)S2)cc1`: the AC50 is > 42 µM (inactive).

Consider `CCOc1cc(S(=O)(=O)NCc2ccc3c(c2)OCO3)c(C)cc1C`, for which the AC50 was > 42 µM (inactive).

As to `CCc1c(C(=O)N2CCN(c3ccccc3F)CC2)[nH]c(C)c1C(C)=O`, the AC50 is > 42 µM (inactive).

For `Cc1nn(C)c(C)c1-c1c(C#N)c(N)nc2c1CCCCCC2`, the AC50 is > 42 µM (inactive).

As for `COc1ccc2[nH]cc(CCNS(=O)(=O)c3ccc(C)cc3)c2c1`, the AC50 was > 42 µM (inactive).

Regarding `O=C(Cc1cccs1)Nc1nnc(-c2ccncc2)s1`, the AC50 is > 42 µM (inactive).

Consider `COc1ccccc1NC(=O)CN(c1ccc(C)cc1)S(=O)(=O)c1c(C)n[nH]c1C`, for which the AC50 was > 42 µM (inactive).

For the compound `O=C(COC(=O)/C=C/c1ccco1)Nc1ncc(C(F)(F)F)cc1Cl`, the AC50 was > 42 µM (inactive).

Regarding `CC[C@H]1CCCCc2ccccc2[C@@H](C(=O)C[C@@H](O)CC(C)=O)OC1=O`, the AC50 was > 42 µM (inactive).

Take `O=C(CN1c2ccccc2Sc2ccccc21)N/N=C/c1ccc(Cl)cc1Cl`: the AC50 is > 21 µM (inactive).

`N#CCC(=O)N/N=C/c1ccc(OS(=O)(=O)c2ccccc2)cc1`: the AC50 is > 42 µM (inactive).

For `O=C(COC(=O)c1cc([N+](=O)[O-])ccc1N1CCOCC1)Nc1cccc(F)c1`, the AC50 was > 42 µM (inactive).

For `O=C(Nc1ccccc1)N1CCN(CCc2ccccc2)CC1`, the AC50 was > 42 µM (inactive).

For the compound `O=C(CCc1nc2sc3c(c2c(=O)[nH]1)CCCC3)N1CCN(c2ccccc2)CC1`, the AC50 was > 42 µM (inactive).

As to `N=c1c[n+](C2CCCCC2)[n-]o1`, the AC50 was > 42 µM (inactive).

In the case of `CN=C(Nc1cccnc1)c1ccccc1`, the AC50 was > 42 µM (inactive).

Regarding `COc1ccc(OCC(=O)O/N=C(\N)Cc2ccc(Cl)cc2)cc1`, the AC50 is > 42 µM (inactive).

In the case of `O=C(Cc1ccc(F)cc1)Nc1nc(-c2ccc(F)cc2)cs1`, the AC50 is > 42 µM (inactive).

`COc1ccc2cc(C(=O)Nc3ccc(Cl)cc3)sc(=O)c2c1OC`: the AC50 is > 42 µM (inactive).

With `COc1cc(/C=N/n2cnnc2)ccc1OCc1ccccc1`, the AC50 is > 42 µM (inactive).

With `O=C1c2ccccc2C(=O)N1CCSc1ccccc1`, the AC50 is > 42 µM (inactive).

In the case of `CCCNc1nc2ccccc2c(=O)[nH]1`, the AC50 is > 42 µM (inactive).
